Source: patent US20260022352A1, “COMPOSITIONS AND METHODS FOR PURIFYING […]” (North Carolina State University, priority 2023, published 2026)
Several values for one entry are separate records, joined by “and”; a condition that tells them apart may be missing. Equal entries are not always repeated. Where no end group is shown, it is not given here.

Experiments:
[1] = tested on: LVV particles; parameters: species or system lentivirus
[2] = tested on: LVV particles; parameters: species or system lentivirus; remark: listed apart in the source
[3] = tested on: LVV particles; assay type: binding, lentivirus

GKEAAFAA was tested, and the “DBC10% (TU per mL of resin)” value [1] was 5.3 · 10^9 TU per mL of resin and 3.9 · 10^9 TU per mL of resin and 4.4 · 10^9 TU per mL of resin and 3.7 · 10^9 TU per mL of resin and the “LVV adsorbed (binding capacity) across cycles” value (“LVV adsorbed” for short) [2] was > 10^9 TU/mL.

For SFVRIGLSD, the “binding capacity (summary)” value [3] was ~6.24·10^9 TU per mL of resin and the “LVV adsorbed” value [2] was ~10^9 TU/mL.

For “SRAFVGDADRD-Poros: peptide SRAFVGDADRD (SEQ ID NO: 4) conjugated on aminated Poros resin (also: conjugated to aminated Poros resin, site not given here)”, the “DBC10% (vg/mL), real time qPCR” value [3] was 6.89·10^9 vg/mL.

In the case of SRAFVGDADRD, the “binding capacity (summary)” value [3] is reported as ~6.24·10^9 TU per mL of resin and the “LVV adsorbed” value [2] is reported as ~10^9 TU/mL.
